Data taken from publication PMC11379708, “Divergent mechanisms of steroid inhibition in the human ρ1 GABAA receptor” (Nature Communications, 2024).
pIC50, pKd: −log10 of the molar value. Structures can show the parent of a compound that is named as a salt.

Columns and labels:
[1] = target: T1, human ρ1 GABAA receptor (Homo sapiens, UniProt P24046); test: cryo-EM structure ([…] Å); TEVC inhibition in Xenopus oocytes; F283Y/F284Y ablates inhibition; assay type: cell-based
T1 construct: gene GABRR1; ρ1-EM (flexible N-terminal region and intracellular M3-M4 loop deleted), homopentamer in saposin nanodiscs

[2] = target: T1, human ρ1 GABAA receptor; test: cryo-EM structure with GABA; TEVC voltage-dependent block (Woodhull fit); assay type: cell-based

T1 sequence (P24046 22-479): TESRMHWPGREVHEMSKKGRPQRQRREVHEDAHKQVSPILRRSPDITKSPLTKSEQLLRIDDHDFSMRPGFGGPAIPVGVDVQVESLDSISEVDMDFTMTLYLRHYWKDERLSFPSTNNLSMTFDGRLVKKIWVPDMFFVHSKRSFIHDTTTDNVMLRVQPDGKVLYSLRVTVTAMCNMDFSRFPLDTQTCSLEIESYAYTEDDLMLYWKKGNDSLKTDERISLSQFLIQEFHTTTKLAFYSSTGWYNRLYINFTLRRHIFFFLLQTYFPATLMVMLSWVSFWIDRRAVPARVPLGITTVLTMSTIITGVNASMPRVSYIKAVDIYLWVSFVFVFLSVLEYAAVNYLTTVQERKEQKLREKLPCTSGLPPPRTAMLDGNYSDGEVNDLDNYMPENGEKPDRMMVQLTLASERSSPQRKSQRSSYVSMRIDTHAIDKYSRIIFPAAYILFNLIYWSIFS

| SMILES | pIC50 [1] | pKd [2] |
| --- | --- | --- |
| C[C@]12CC[C@@H]3c4ccc(O)cc4CC[C@H]3[C@@H]1CC[C@@H]2O [E2, β-estradiol] | ~4.52 | – |
| CC(=O)C1CCC2C3CC=C4CC(OS(=O)(=O)O)CCC4(C)C3CCC12C (centres unmarked) [PS, pregnenolone sulfate] | – | 4.44 |
